Residues, ends and D or L forms follow the SMILES beside them. *: point of attachment. Cbz = O=C(OCc1ccccc1)*; CH2Cl = ClC*
The compounds below were run against recombinant CpLDH protein (Cryptosporidium parvum, UniProt Q9GT92, F198L/K295E/R251K).

Structure (SMILES)	MEAN CpLDH INHIBITION (%)
CNC(=S)N/N=C/c1ccc([N+](=O)[O-])s1 [NSC169543]	-46.26
COC(=O)C1(C)CCCC2(C)c3cc(OC)ccc3C(=O)C(Br)C12 (centres unmarked) [NSC169600]	-28.27
OCCNCCN1CCN(CCCN2c3ccccc3Sc3ccc(C(F)(F)F)cc32)CC1 [NSC169676]	-69.84
CC(C)C[C@H]1C(=O)N2CCC[C@H]2[C@]2(O)O[C@](NC(=O)[C@@H]3C=C4c5cccc6[nH]c(Br)c(c56)C[C@H]4N(C)C3)(C(C)C)C(=O)N12.CS(=O)(=O)O [NSC169774]	-107.83
C[C@H](CN1CC(=O)NC(=O)C1)N1CC(=O)NC(=O)C1 [NSC169779]	-13.00
COC(=O)[C@@]12OC[C@]34[C@H]([C@@H](O)[C@@H]1O)[C@@]1(C)CC(=O)C(O)=C(C)[C@@H]1C[C@H]3OC(=O)[C@H](OC(=O)C=C(C)C)[C@@H]24 [NSC172924]	-39.50
CC(=O)[O][Pb]([O]C(C)=O)([c]1ccccc1)[c]1ccccc1 [NSC173046]	-141.42
CC(C)CC(NC(=O)OCc1ccccc1)C(=O)NC(Cc1ccccc1)C(=O)CCl (stereo not drawn) [NSC173904] (Cbz-Leu-Phe-CH2Cl; configuration not given here)	-56.33
CC(=O)NC(CC(C)C)C(=O)NC(Cc1ccccc1)C(=O)CCl (stereo not drawn) [NSC173905] (Ac-Leu-Phe-CH2Cl; configuration not given here)	-39.37
CN(Cc1cnc2nc(N)nc(N)c2n1)c1ccc(C(=O)N[C@@H](CCC(=O)O)C(=O)O)c2ccccc12 [NSC174121]	-134.26
[Cl][Hg][c]1ccc2ccccc2c1 [NSC174163]	-16.59
CC(=O)[O][Hg][c]1c(C)c(C)c(C)c(C)c1C [NSC174176]	-60.94
CCCC(=O)[O-].[Na+] [NSC174280]	-5.75
N=N/C(=C\c1c(O)[nH]c2ccccc12)c1ccccc1 [NSC175274]	-25.99
Cc1ccc(C2NC(=O)c3ccccc3N2)s1 (centres unmarked) [NSC175634]	-31.59
O=C1NC(c2cccc3ccccc23)Nc2ccc(Cl)cc21 (centres unmarked) [NSC175636]	-17.73
N[C@H](C(=O)O)[C@H]1ON=C(Cl)[C@H]1O [NSC176324]	-9.23
C(=C/c1nc2ccccc2o1)/c1ccc2c(c1)OCO2 [NSC176655]	-23.23
NC(N)=NCCCS(=O)(=O)Nc1ccc(Nc2c3ccccc3nc3cc([N+](=O)[O-])ccc23)cc1 [NSC177365]	-212.36
COc1ccc(O)c2c(=O)c3c(OC)cc4c(c3oc12)[C@@H]1C=CO[C@@H]1O4 [NSC178249]	-31.06
CCC[CH2][Sn]1([CH2]CCC)[S]CC[N]1S(=O)(=O)c1ccc(C)cc1 [NSC183359]	-29.84
C[C@H]1O[C@@H](c2ccc3c(c2O)C(=O)C2=C(C3=O)[C@@]3(O)C(=O)C[C@](C)(O)C[C@@]3(O)C=C2)C[C@@H](O)[C@@H]1O [NSC184398]	-31.06
C[n+]1cc2cc(O)c(O)cc2c2ccc3cc(O)c(O)cc3c21.Cl.[Cl-].c1ccncc1 [NSC184403]	-44.28

Structure (SMILES)	MEAN CpLDH INHIBITION (%)
NC(=S)N/N=C/c1ccc(OC(=O)COc2ccccc2Cl)cn1 [NSC185056]	-5.23
Oc1ccc(/C=N/NC(=S)Nc2cccnc2)nc1 [NSC185065]	-8.17
Cc1cc(C)c(NC(=O)/C=C/c2ccccc2)c(C)c1 [NSC191384]	-34.30
Cc1ccc(NC(=O)/C=C/c2ccccc2)c(C)c1 [NSC191389]	-64.07
Cc1c(Cl)cccc1NC(=O)/C=C/c1ccccc1 [NSC191392]	-18.93
Cc1cccc(Cl)c1NC(=O)/C=C/c1ccccc1 [NSC191393]	-10.83
C[CH2][Ge]1([CH2]C)[CH2]CC2(CCN(CCCN(C)C)C2)C[CH2]1 [NSC192965]	-81.94
CC[C@@]1(O)C[C@H](O)c2c(O)c3c(c(O)c2[C@H]1C(=O)OC)C(=O)c1cccc(O)c1C3=O [NSC196524]	-30.88
O=C1OC(c2ccco2)=N/C1=C\c1ccc(Cl)c(Cl)c1 [NSC202000]	-23.71
COc1cc2c(c3oc4cccc(O)c4c(=O)c13)[C@@H]1C=CO[C@@H]1O2 [NSC204985]	-20.51
CCOC(=O)C(C)NC(=O)N(C)C12CC3CC(CC(C3)C1)C2 (centres unmarked) [NSC208913]	-30.10
CCOC(=O)CNC(=O)NC12CC3CC(CC(C3)C1)C2 [NSC208914]	-37.53
COc1ccc(C2C=C(c3ccc4c(c3)OCO4)Oc3c2c(=O)oc2ccccc32)cc1OC (centres unmarked) [NSC211489]	-11.02
CC(C)c1oc(=O)cc2c1[C@@H](O)[C@H]1OC(=O)[C@@]3(C)[C@@H](O)[C@H]4O[C@H]4[C@@]2(C)[C@@H]13 [NSC211500]	-13.24
C[n+]1ccc(Nc2ccc(NC(=O)c3ccc(Nc4cc[n+](C)c5ccc([N+](=O)[O-])cc45)cc3[N+](=O)[O-])cc2)cc1.Cl [NSC218439]	-11.45
Cc1[nH]c(=O)[nH]c(=O)c1/C=C/C(=O)NC(CO)CC(C)C (centres unmarked) [NSC224117]	-0.81
CSCC(CO)NC(=O)/C=C/c1c(C)[nH]c(=O)[nH]c1=O (centres unmarked) [NSC233872]	-35.08
O=C(O)c1ccc(Nc2c3ccccc3nc3ccccc23)cc1.[Na+] [NSC235082]	-28.09
CO[C@H]1/C=C/O[C@@]2(C)Oc3c(C)c(O)c4c(c3C2=O)C(=O)C=C(NC(=O)/C(C)=C\C=C\[C@H](C)[C@H](OC=O)[C@@H](C)[C@@H](O)[C@@H](C)[C@H](OC(C)=O)[C@@H]1C)C4=O [NSC239375]	-42.34
Cc1cc(N(CC(C)Br)CC(C)Br)ccc1N=Nc1ccccc1C(=O)O (centres unmarked) [NSC240419]	-69.26
CCCC[S+]([O-])CC(CO)NC(=O)/C=C/c1c(C)[nH]c(=O)[nH]c1=O (centres unmarked) [NSC241509]	-30.83
COc1cc(O)c(Cc2ccccc2O)c(O)c1C(=O)CCc1ccccc1 [NSC241906]	-0.38
CC[C@@]1(O)C[C@H](O[C@H]2C[C@H](N(C)C)[C@H](O[C@H]3C[C@@H]4O[C@H]5CC(=O)[C@H](C)O[C@H]5O[C@@H]4[C@H](C)O3)[C@H](C)O2)c2c(cc3c(c2O)C(=O)c2c(O)ccc(O)c2C3=O)[C@H]1C(=O)OC [NSC243023]	-140.35

Structure (SMILES)	MEAN CpLDH INHIBITION (%)
CCS(=O)(=O)Nc1ccc(Nc2c3ccccc3nc3ccccc23)c(OC)c1.CS(=O)(=O)O [NSC243928]	-32.64
CC(=O)OC[C@H]1O[C@@H](NC(=O)N(CCCl)N=O)[C@H](OC(C)=O)[C@@H](OC(C)=O)[C@@H]1OC(C)=O [NSC245432]	-45.30
CO[C@H]1/C=C\C=C(/C)C(=O)NC2=CC(=O)C(N)=C(C[C@@H](C)C[C@H](OC)[C@H](O)[C@@H](C)/C=C(\C)[C@@H]1OC(N)=O)C2=O [NSC255109]	-205.22
CC(C)N.CC(C)N.[Cl-].[Cl-].[OH-].[OH-].[Pt] [NSC256927]	-46.96
COc1cccc2c1C(=O)c1c(O)c3c(c(O)c1C2=O)C[C@@](O)(C(C)=O)C[C@@H]3O[C@@H]1C[C@@H](N(C)C)[C@@H](O)[C@@H](C)O1 [NSC258812]	-2.78
COc1ccc(/C=C2\N=C(c3ccccc3)OC2=O)c(OCc2ccccc2)c1 [NSC262665]	-17.00
C[n+]1ccc(-c2cc[n+](C)cc2)cc1.[Cl-].[Cl-] [NSC263500]	-58.44
NC1=NCN([C@@H]2O[C@H](CO)[C@@H](O)[C@H]2O)C(=O)N1 [NSC264880]	-2.01
CC[C@@]1(O)C[C@H](O[C@H]2C[C@H](N(C)C)[C@H](O[C@H]3C[C@H](O)[C@H](O[C@H]4C[C@H](O)[C@H](O)[C@H](C)O4)[C@H](C)O3)[C@H](C)O2)c2c(cc3c(c2O)C(=O)c2c(O)ccc(O)c2C3=O)[C@H]1C(=O)OC [NSC265211]	-47.33
COC1C(C)OC(OC2CC(C)(O)Cc3cc4c(c(O)c32)C(=O)c2c(O)cc3c(c2C4=O)OC2OC3(C)C(O)C(N(C)C)C2O)C(OC)C1(C)OC (centres unmarked) [NSC265450]	-83.48
[Cl][Pt+2][Cl].[NH-]C1CCCCC1[NH-] (centres unmarked) [NSC265459]	-11.78
CCCCCCCCCCSCC(CO)NC(=O)/C=C/c1c(C)[nH]c(=O)[nH]c1=O (centres unmarked) [NSC265473]	-39.94
O=C1N[C@@H]2C(=C[C@H](O)[C@@H](O)[C@H]2O)c2cc3c(c(O)c21)OCO3 [NSC266535]	-18.25
CC(=O)O[C@@H]1C[C@H]2O[C@@H]3C=C(C)CC[C@]3(C)[C@]1(C)[C@]21CO1 [NSC267033]	-8.12
COc1ccc(S(=O)(=O)N/N=C/C(=O)O)cc1 [NSC267213]	-67.55
CC[C@@]1(O)C[C@H](O[C@H]2C[C@H](N(C)C)[C@H](O)[C@H](C)O2)c2c(cc3c(c2O)C(=O)c2c(O)ccc(O)c2C3=O)[C@H]1C(=O)OC [NSC267229]	-179.02
CCNC(=O)OCc1c(COC(=O)NCC)c(-c2ccc(Cl)c(Cl)c2)n2c1CCC2 [NSC267700]	-49.53
C=C(C)C(=O)OC1CCC2(C)C(CCC3C2CCC2(C)C(c4ccc(=O)oc4)CC4OC432)C1 (centres unmarked) [NSC267712]	-57.63
COc1cccc2c1C(=O)c1c(O)c3c(c(O)c1C2=O)C[C@@](O)(C(C)=O)C[C@@H]3OC1CC(N(Cc2ccccc2)Cc2ccccc2)C(O)C(C)O1.Cl (some centres unmarked) [NSC268242]	-40.28
CC(C)CCCCCCCCCCCCC(=O)NCC(=O)NC1C(C)OC(Nc2ncnc3nc[nH]c23)C(O)C1O (centres unmarked) [NSC268251]	-8.04
CC1=C[C@H]2O[C@@H]3[C@H](O)[C@@H](O)[C@](C)([C@@]2(CO)CC1)[C@]31CO1 [NSC269142]	-41.10
COC(C(=O)C(O)C(C)O)C1Cc2cc3cc(OC4CC(OC5CC(O)C(O)C(C)O5)C(O)C(C)O4)c(C)c(O)c3c(O)c2C(=O)C1OC1CC(OC2CC(OC3CC(O)C(OC)C(C)O3)C(O)C(C)O2)C(O)C(C)O1 (centres unmarked) [NSC269146]	-38.98

From publication PMC6687188, “Novel lactate dehydrogenase inhibitors with in vivo efficacy against Cryptosporidium parvum” (PLoS Pathogens, 2019)
